This note sets out measurements from US8809340B2, “Crystalline form” (Novartis AG, priority 2012, dated 2014).

A short description of series [1]: Solid-form transformation upon drying. Type of series: physicochemical. As to conditions: transient solvate form in suspension during the crystallization of Form A.
Series [2] can be described thus: Relative thermodynamic stability of polymorphic forms. The series is classed as physicochemical. As to conditions: polymorph comparison, succinate salt.

Molecules are shown by their SMILES. Counter-ions that a name gives are not always drawn.

As for `CCCN(CCC)C(=O)COC(=O)CCNS(=O)(=O)c1cccc(C(=O)N2CCC3(CC2)CN/C(=N\C(=O)c2nc(Cl)c(N)nc2N)N3)c1` [Form B, 3-(3-{2-[(E)-3,5-Diamino-6-chloro-pyrazine-2-carbonylimino]-1,3,8-triaza-spiro[4.5]decane-8-carbonyl}-benzenesulfonylamino)-propionic acid dipropylcarbamoylmethyl ester succinate salt], in series [1], the “form stability / transformation upon drying” value is “transforms into Form A upon drying”. On to `CCCN(CCC)C(=O)COC(=O)CCNS(=O)(=O)c1cccc(C(=O)N2CCC3(CC2)CN/C(=N\C(=O)c2nc(Cl)c(N)nc2N)N3)c1` [Form C, 3-(3-{2-[(E)-3,5-Diamino-6-chloro-pyrazine-2-carbonylimino]-1,3,8-triaza-spiro[4.5]decane-8-carbonyl}-benzenesulfonylamino)-propionic acid dipropylcarbamoylmethyl ester succinate salt], for which the “thermodynamic stability relative to Form A” value in series [2] is on record as “thermodynamically more stable than Form A”.
